Data published in PMC5467316, “Antiviral Activity of Fridericia formosa (Bureau) L. G. Lohmann (Bignoniaceae) Extracts and Constituents” (Journal of Tropical Medicine, 2017).
Where two headings read alike, the source gives them in different places.

What was measured:
[1] = tested on: hepatitis B surface antigen (HBsAg); parameters: method as in PMID 23576173; settings: cited from earlier work
[2] = tested on: hepatitis B antigen (HBeAg); parameters: method as in PMID 23576173; settings: cited from earlier work
[3] = Cytotoxicity assay (MTT), Vero cells; format: cell-based; settings: African green monkey
[4] = Cytotoxicity assay (MTT), LLCMK2 cells; format: cell-based; settings: rhesus monkey
[5] = tested on: human herpes virus 1 (HSV-1); test: microbe, parasite or virus in culture; format: cell-based; settings: for EC50: Human alphaherpesvirus 1, 48 h; for antiviral activity against HSV-1 (in words): statement in text
[6] = tested on: vaccinia virus Western Reserve (VACV-WR); test: microbe, parasite or virus in culture; format: cell-based; settings: for EC50: Vaccinia virus Western Reserve, 48 h; for antiviral activity against VACV-WR (in words): statement in text
[7] = tested on: murine encephalomyocarditis virus (EMCV); format: cell-based; settings: statement in text
[8] = tested on: dengue virus type 2 (DENV-2); test: microbe, parasite or virus in culture; format: cell-based; settings: for EC50: Dengue virus, DENV2, 72 h; for antiviral activity against DENV-2 (in words): statement in text
HIV-1 replication = tested on: HIV-1 replication; parameters: method as in PMID 24066838, PMID 21610656; settings: dose dependent manner; cited from earlier work
HSV-1 = tested on: HSV-1; parameters: method as in PMID 16350858; settings: previously reported; read-out: EC50 against HSV-1; cited from earlier work
[9] = parameters: method as in PMID 14977449; settings: clinical tests; cited from earlier work
Enterovirus 71 = tested on: Enterovirus 71; parameters: method as in PMID 24679044; settings: in vitro; read-out: EC50 against Enterovirus 71; cited from earlier work
Vero cells = tested on: Vero cells; parameters: method as in PMID 24679044; settings: cited from earlier work
[10] = read-out: HSV-1 EC50 (value in parentheses)
[11] = read-out: VACV-WR EC50 (value in parentheses), viral titer TCID50/mL 1.0 × 10^6 in 48 h, MTT, concentration in µM
[12] = read-out: VACV-WR EC50, viral titer TCID50/mL 1.0 × 10^6 in 48 h, MTT

COc1cc(O)c2c(=O)c3c(O)ccc(O)c3oc2c1 [1,5,8-trihydroxy-3-methoxyxanthone]
EC50 [1]: > 980 µM | EC50 [2]: 350 µM

O=c1c2cc(O)ccc2oc2cc(O)c([C@@H]3O[C@H](CO)[C@@H](O)[C@H](O)[C@H]3O)c(O)c12 [2-C-β-D-glucopyranosyl-1,3,7-trihydroxyxanthone]
EC50 [1]: 210 µM | EC50 [2]: 40 µM

O=c1c2cc(O)c(O)cc2oc2cc(O)c([C@@H]3O[C@H](CO)[C@@H](O)[C@H](O)[C@H]3O)c(O)c12 [Mangiferin (1), 2-β-D-Glucopyranosyl-1,3,6,7-tetrahydroxy-9H-xanthen-9-one]
CC50 [3]: > 500 µg/mL | CC50 [4]: > 500 µg/mL | EC50 ([5]; read-out: HSV-1 EC50): 268 µg/mL | EC50 [5, 10]: 635 µM | antiviral activity against HSV-1 (in words) [5]: low antiviral effect | antiviral activity against HSV-1 (in words) ([5]; listed as mangiferin): practically inactive | EC50 [6, 11]: 432 µM | EC50 [6, 12]: 183 ± 14.3 µg/mL | antiviral activity against VACV-WR (in words) [6]: low antiviral effect | antiviral activity against VACV-WR (in words) ([6]; listed as mangiferin): practically inactive | antiviral activity against EMCV (in words) [7]: low antiviral effect | antiviral activity against EMCV (in words) ([7]; listed as mangiferin): practically inactive | EC50 ([8]; read-out: DENV-2 EC50): 266 µg/mL | EC50 ([8]; read-out: DENV-2 EC50 (value in parentheses)): 629 µM | antiviral activity against DENV-2 (in words) [8]: low antiviral effect | antiviral activity against DENV-2 (in words) ([8]; listed as mangiferin): practically inactive | inhibitory activity on HIV-1 replication (in words) (HIV-1 replication): good inhibitory activity

O=c1cc(-c2ccccc2)oc2cc(O)cc(O)c12 [Chrysin (4), 5,7-Dihydroxy-2-phenyl-4H-1-benzopyran-4-one]
CC50 [3]: > 500 µg/mL | CC50 [4]: > 500 µg/mL | EC50 ([5]; read-out: HSV-1 EC50): > 100 µg/mL | EC50 [5, 10]: 576 µM | antiviral activity against HSV-1 (in words) [5]: low activity | EC50 [6, 11]: 486 µM | EC50 [6, 12]: > 100 µg/mL | antiviral activity against VACV-WR (in words) [6]: low activity | VACV-WR EC50 ([6]; viral titer TCID50/mL 1.0 × 10^6 in 48 h, MTT): 123.5 ± 10.5 µg/mL | antiviral activity against EMCV (in words) [7]: did not inhibit the replication cycle | antiviral activity against DENV-2 (in words) [8]: did not inhibit the replication cycle | EC50 (HSV-1): 2.5 µM | effect on testosterone levels in men (in words) [9]: no effect

euxanthone
EC50 (Enterovirus 71): 12.2 µM | CC50 (Vero cells): 36.6 µM

O=c1c2c(O)cc(O)cc2oc2c(O)ccc(O)c12 [norbellidifolin]
EC50 [1]: 770 µM | EC50 [2]: < 620 µM

Nc1nc2c(ncn2COCCO)c(=O)[nH]1 [Acyclovir, reference compound]
CC50 ([3]; MTT, exposure 48 and 72 h, read-out: Vero CC50): > 1000 µg/mL | CC50 ([4]; MTT, exposure 48 and 72 h, read-out: LLCMK2 CC50): > 1000 µg/mL
